Data: patent US9347077B2, “Over-expression of a putative oxidoreductase (UcpA) for increasing furfural or 5-hydroxymethylfurfural tolerance” (UNIVERSITY OF FLORIDA RESEARCH FOUNDATION, INCORPORATED, priority 2011, dated 2016)
In brackets after ≈: the same amount, converted by molar mass.

Tests used:
UcpA = target: T1, UcpA (Escherichia coli, UniProt P37440, T153Q); type: biochemical; conditions: lysates of induced LY180 (pLOI4856) vs empty vector control, appropriate cofactors
T1 construct: made in house; host or cells: E. coli LY180 (pLOI4856), IPTG-induced; clarified cell lysate, not purified
T1 sequence (P37440 whole entry T153Q): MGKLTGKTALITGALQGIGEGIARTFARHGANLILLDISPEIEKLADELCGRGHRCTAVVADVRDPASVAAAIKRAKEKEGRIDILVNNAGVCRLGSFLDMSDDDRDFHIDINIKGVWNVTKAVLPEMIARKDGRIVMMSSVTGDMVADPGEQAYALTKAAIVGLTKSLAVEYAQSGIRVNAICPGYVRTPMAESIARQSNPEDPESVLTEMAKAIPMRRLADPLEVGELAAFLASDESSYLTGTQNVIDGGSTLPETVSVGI
Method: Cultures were grown overnight to a cell density of approximately 0.66 mg dcw ml^−1 (37° C.) in closed tubes containing 20 ml AM1 (50 g liter^−1 xylose, 0.1 mM IPTG and 12.5 mg liter^−1 ampicillin). Cells were harvested by centrifugation (7,000 g for 5 min, 4° C.), washed twice with 10 ml of cold sodium phosphate buffer (50 mM pH 7.0), resuspended to a cell density of 4.4 mg dcw ml^−1, and disrupted in buffer containing 1 mM dithiothreitol using a Fastprep-24 (MP Biomedicals, Solon, Ohio). After clarification at 13,000 g (10 min, 4° C.), protein concentration was determined using a BCA™ Protein Assay Kit (Thermo Scientific, Rockford, Ill.). Furfural-dependent reduction was measured using NADH and NADPH by monitoring the decrease in absorbance at 340 nm (extinction coefficient of NADH of 6,220 M^−1 cm^−1; extinction coefficient of NADPH of […]). Reaction mixtures contained 200 mM phosphate buffer (pH 7.0), 10 mM furfural, and 0.2 mM NADH or NADPH. NADH-dependent and NADPH-dependent reduction of 5-HMF (10 mM) was measured in a similar fashion.
Additional compounds (ethanol, glycerol, n-butanol, 2-propanol, methanol, acetoin, diacetyl, methyglyoxal, dihydroxyacetone, acetaldehyde, and 1,3-propandiol) were tested as potential substrates for UcpA using appropriate cofactors.

LY180(pTrc99A) = experiment: Furfural toxicity / MIC in tube cultures, vector control; type: cell-based, Escherichia coli
Method: (§1) Furfural toxicity was measured in tube cultures (13 mm by 100 mm) containing 4 ml of AM1 medium with 50 g liter^−1 xylose, 12.5 mg liter^−1 ampicillin, furfural, and other supplements as indicated (Miller et al., 2009a, b). Cultures were inoculated to an initial density of 22 mg dcw liter^−1. IPTG (0.1 mM) was included for fucO induction. Cell mass was measured at 550 nm after incubation for 48 h (37° C.). For cysteine supplement experiment, the culture condition was the same but included 0.1 mM cysteine as an amendment.
(§2) Derivatives of LY180 containing these plasmids were tested for furfural tolerance with (0.1 mM IPTG) and without IPTG induction using an MIC assay (Miller et al., 2009a; Miller et al., 2010; Wang et al., 2011b).

LY180 (pLOI4856) = experiment: Furfural toxicity / MIC in tube cultures, ucpA plasmid; type: cell-based, Escherichia coli
Method: as §1, §2

YqhD = YqhD (Escherichia coli, UniProt Q46856); conditions: read-out: Km for NADPH; cited from earlier work
YqhD, sequence (Q46856 whole entry): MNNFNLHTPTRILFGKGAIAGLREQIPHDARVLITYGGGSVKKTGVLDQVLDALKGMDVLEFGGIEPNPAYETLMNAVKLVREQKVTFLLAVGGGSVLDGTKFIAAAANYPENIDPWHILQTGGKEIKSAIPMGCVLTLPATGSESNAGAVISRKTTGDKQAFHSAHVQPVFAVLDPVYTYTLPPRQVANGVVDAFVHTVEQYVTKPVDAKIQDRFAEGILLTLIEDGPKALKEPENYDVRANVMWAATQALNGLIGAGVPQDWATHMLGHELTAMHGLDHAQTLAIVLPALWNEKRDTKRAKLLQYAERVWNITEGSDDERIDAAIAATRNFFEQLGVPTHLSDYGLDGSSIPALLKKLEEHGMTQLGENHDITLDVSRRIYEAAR

[1] = Escherichia coli, read-out: MIC for 5-HMF

Molecule | Metabolism as substrate for UcpA (UcpA) | also measured
OCCCO [1,3-propandiol] | none appeared to be metabolized | 
CC(C)O [2-propanol] | none appeared to be metabolized | 
O=Cc1ccc(CO)o1 [5-HMF, 5-hydroxymethylfurfural] |  | MIC (LY180(pTrc99A); [1]): 16 mM (≈ 2020 µg/mL); MIC (LY180 (pLOI4856); [1]): 20 mM (≈ 2520 µg/mL)
N[C@@H](CS)C(=O)O [L-cysteine, reference compound] |  | Effect of L-cysteine supplement on growth in the presence of furfural (LY180(pTrc99A); 0.1 mM L-cysteine, 10 mM furfural): cell growth was increased; Effect of L-cysteine supplement on growth in the presence of furfural (LY180 (pLOI4856); 0.1 mM L-cysteine, 10 mM furfural, ucpA induced): did not alter the growth
CC=O [acetaldehyde] | none appeared to be metabolized | 
CC(=O)C(C)O (stereo not drawn) [acetoin] | none appeared to be metabolized | 
CC(=O)C(C)=O [diacetyl] | none appeared to be metabolized | 
CCO [ethanol] | none appeared to be metabolized | 
OCC(O)CO [glycerol] | none appeared to be metabolized | 
CO [methanol] | none appeared to be metabolized | 
CCCCO [n-butanol] | none appeared to be metabolized | 
NADPH |  | Km (YqhD): 0.008 mM
methyglyoxal | none appeared to be metabolized | 
